Entries after “also recorded” stand apart in the source; their conditions may differ.
How the values were obtained:
[1] = tested on: dentate granular cells of Tau368 mice; assay: Sparse labeling: dendritic spine density and mossy fiber puncta area; type: in vivo, mouse
Method: For 2-month male C57BL/6 mice, 10 mM FITC-labeled or unlabeled-DEPTAC were directly injected through the tail vein or lateral ventricle for the evaluation of BBB-penetrability. For 9-month 3×Tg AD mice or Tau368 (20–30 g body weight), unlabeled-DEPTAC (5 mM, 1 μL for each time) was delivered for once into the lateral ventricle through direct stereotaxic injection, or repeatedly administrated through guiding cannulas (RWD, Shenzhen, China) implanted into the lateral ventricle once every 3 days for a consecutive month to test its dephosphorylation efficiency. Mice were restricted in a custom designed device and stayed awake during drug administration, and sacrificed at 24 h post the single or last DEPTAC administration.
A total volume of 0.3 μL mixture of AAV-CaMKIIα-Cre (5.21E+07) and AAV-EF1α-DIO-mCherry (3.24E+12) (1:1 vol/vol) was stereotaxically injected into the dDG of Tau368 mice 1 month following the beginning of dox or normal drinking water administration. Dox was stopped 1-month post AAVs injection, and DEPTAC were delivered through lateral ventricle for a consecutive month. Behavioral tests were performed after the DEPTAC administration, and mice were killed after behavioral tests. Hippocampal sections of 60 μm were obtained, and fluorescent images were taken by a two-photon laser-scanning confocal microscope (LSM710, Zeiss). The dendrite complexity of granular cells in the dorsal dentate gyrus was evaluated by Sholl analysis using Simple Neurite Tracer plugin and ImageJ (Fiji) software. Dendrite spine density and the averaged area of mossy fiber punctas were evaluated using ImageJ by an experimenter blinded from mice groupings. It should be noted that the fluorescence-labeled mossy fibers assembled densely in the CA3 subset, the main target area of mossy fiber axon terminals, making it difficult to accurately measure the puncta areas (data not shown). Therefore, we chose the hilus of DG subset for the measurement, which we believe should be also valid to indicate the axon plasticity of DG granular cells.

human tau (hTau) [2] = assay: Western blotting of phospho-tau and total tau in primary neurons with hTau overexpression; type: cell-based
Method: Lentivirus LV-EF1α-hTau-GFP (3.50E+8 vg/mL) was packaged by OBiO (Shanghai, China) and used for hTau-overexpression (fused with GFP) in cultured primary rat neurons. AAV-CaMKIIα-Cre (diluted to 5.21E + 07 vg/mL) and AAV-EF1α-DIO-mCherry (3.24E + 12 vg/mL) were obtained from BrainVTA (Wuhan, China) and co-injected (1:1 vol/vol) for sparse labeling of dorsal DG neurons. Doxycycline was purchased from Energy Chemical (Shanghai, China). Rabbit polyclonal DEPTAC antibody was prepared by Daian Biotechnology (Wuhan, China). All other reagents including MG132 were purchased from Sigma-Aldrich (USA), unless otherwise specified.
(§1) Primary hippocampal neurons were prepared from E12–E15 days SD rat embryos. Briefly, pregnant rats were acutely executed, hippocampus was dissected on ice and gently minced in DME/F12 (Hyclone) then suspended in 0.125% (vol/vol) trypsin solution at 37 °C for 20 min. Enzymatic activity was stopped by fetal bovine serum. Neurons were initially kept in 10% FBS-containing DME/F12 for 4–6 h, and subsequently cultured in Neurobasal (Hyclone) with 2% B27, 1% glutamax and 1% penicillin–streptomycin (Thermo Fisher Scientific) in dishes pre-coated with 100 μg/mL poly-D-lysine. Serum was gradually removed by replacing half of the medium for each time within the following 2 days. Especially, to inhibit the proteasome-dependent proteolysis, the cultured hippocampal neurons were treated with 5 μM MG132 for 5 h before harvest.
(§2) Cultured cells or hippocampus tissues were collected on ice, and homogenized with RIPA lysis buffer containing 50 mM Tris-HCl, 100 mM NaCl, 1% Triton X-100, 5 mM EDTA, and 1:100 PMSF, and then centrifuged at 12,000 × g for 20 min. The supernatant was collected for the analysis of soluble proteins. In some experiments, the pellets were further incubated with 8% SDS buffer at 37 °C and then ultrasound for 60 times to reach a complete resuspension for the analysis of insoluble tau. Protein concentration was measured through BCA assays (Thermo Fisher). Equal amount of protein from each sample were separated in SDS-PAGE gels, and then transferred onto nitrocellulose or 0.22 μm polyvinylidene fluoride membranes (Merck Millipore). The membranes were blocked with 5% BSA, and incubated in turn with primary and horseradish peroxidase-conjugated secondary antibodies: pS199-Tau (44734G, Invitrogen, 1:2000), pT205-Tau (11108-1, Signalway, 1:2000), pS396-Tau (11102, Signalway, 1:2000), pS404-Tau (11112, Signalway, 1:2000), AT8 (MN1020, Thermo Fisher, 1:1000), Tau5 (ab80579, Abcam, 1:1000), Tau46 (T9450, Sigma, 1:1000), PP2A-Bα (4953, Cell signaling, 1:1000), Phospho-Ser/Thr (ab17464, Abcam1:1000), Ubiquitin (ab7254, Abcam, 1:1000), MAP2 (AB5622, Millipore, 1:2000), hTau-N368 (a generous gift from Prof. Keqiang Ye, Emory University School of Medicine, 1:1000), DEPTAC (developed by Daian Biotechnology, Wuhan, China, 1:500), β-actin (ab6276, Abcam, 1:2000). HRP-conjugated goat anti-rabbit IgG (A0208, Beyotime, 1:3000), HRP-conjugated goat anti-mouse IgG (A0216, Beyotime, 1:3000). Blots were visualized using ECL luminol reagent (P0018FS, Beyotime), and quantified using ImageJ software.

human tau (hTau) [3] = assay: Western blotting of tau in primary neurons with hTau overexpression in the presence of MG132; type: cell-based
Method: as §1, §2

[4] = Tau368 mice without dox, n = 3 mice
[5] = dox-treated Tau368 mice, DEPTAC 1 month after stopping dox, *p < 0.05, n = 5 mice
[6] = primary rat hippocampal neurons, hTau overexpression
[7] = primary rat neurons, lentivirus-mediated hTau overexpression, dose- and time-dependent, *p < 0.01, n = 3
[8] = 5 μM MG132 for 5 h before harvest, *p < 0.05, n = 3 cell wells

## (1) YQQYQDATADEQG, originates from the porcine β-tubulin 422–434 for recognizing and binding tau proteins.[5],[6] (2) GSGS, a linker for increasing the flexibility of the peptide.[15] (3) KKVAVVRTPPKSP, for recruiting PP2A-Bα,[16] and (4) RRRRRRRR [DEPTAC, DEPhosphorylation TArgeting Chimera; 38 amino acid residues, C185H314N72O56]
[1]; [4]
  averaged mossy fiber puncta area, without dox: only limited effects
  dendritic spine density, without dox: only limited effects
[1]; [5]
  averaged area of mossy fiber puncta: increased; also recorded: enlarged
  mushroom-like dendritic spine density: significantly increased
  total dendritic spine density: significantly increased
Human tau (hTau) [2]; discussion, only effective above
  effective concentration of DEPTAC: > 200 µM
Human tau (hTau) [2]; discussion, only effective within
  effective time window post-administration: ≤ 3 days
Human tau (hTau) [2]; [6]
  concentration of most significant reduction of phospho-tau: 200 to 300 µM
  time post administration of most significant reduction of phospho-tau: ≤ 3 days
Human tau (hTau) [2]; [7]
  tau phosphorylation at AT8 (Ser199/Ser202/Thr205) epitope: downregulated; also recorded: promoted tau dephosphorylation
  tau phosphorylation at pS199: downregulated; also recorded: promoted tau dephosphorylation
  tau phosphorylation at pS396: downregulated; also recorded: promoted tau dephosphorylation
  tau phosphorylation at pS404: downregulated; also recorded: promoted tau dephosphorylation
  tau phosphorylation at pT205: downregulated; also recorded: promoted tau dephosphorylation
  total tau probed by Tau5 antibody: reduction of total tau; also recorded: reduced total tau
Human tau (hTau) [3]; 5 μM MG132, compared with absence of MG132, n = 3 cell wells
  efficiency of tau dephosphorylation in the presence of MG132: reduced efficiency; also recorded: less efficiency
Human tau (hTau) [3]; 5 μM MG132 for 5 h before harvest
  reduction of total tau (Tau5 and Tau46) in the presence of MG132: abolished
Human tau (hTau) [3]; [8]
  tau dephosphorylation at AT8 epitope in the presence of MG132: still significant
  tau dephosphorylation at pT205 in the presence of MG132: still significant

— article PMC8280143, “A novel dephosphorylation targeting chimera selectively promoting tau removal in tauopathies” (Signal Transduction and Targeted Therapy, 2021)
